From ChEMBL document CHEMBL1143488, “Bis(indole) alkaloids as sortase A inhibitors from the sponge Spongosorites sp” (Bioorg Med Chem Lett, 2005)
In brackets after ≈: the same amount, converted by molar mass.

Key:
Staphylococcus aureus = assay: Minimum inhibitory concentration against Staphylococcus aureus Newman strain; assay type: functional
Sortase A = target: T1, Sortase A (Staphylococcus aureus, UniProt Q9S446); assay: Inhibitory activity against Sortase A from Staphylococcus aureus
T1 sequence (Q9S446 whole entry): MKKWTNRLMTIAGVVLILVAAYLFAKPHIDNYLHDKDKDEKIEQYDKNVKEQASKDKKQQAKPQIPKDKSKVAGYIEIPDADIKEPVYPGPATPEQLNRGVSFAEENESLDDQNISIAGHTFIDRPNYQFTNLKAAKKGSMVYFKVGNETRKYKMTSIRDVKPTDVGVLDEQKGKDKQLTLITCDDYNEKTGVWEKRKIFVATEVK

Structure (SMILES)	MIC (Staphylococcus aureus)	IC50 (Sortase A)
O=C1N[C@@H](c2c[nH]c3cc(Br)ccc23)CN[C@@H]1c1c[nH]c2cc(Br)ccc12	12.5 µg/mL (≈ 25.6 µM)	> 205 µM
O=C1N[C@H](c2c[nH]c3cc(Br)ccc23)CN=C1c1c[nH]c2cc(Br)ccc12	3.12 µg/mL (≈ 6.42 µM)	178 µM
O=C1NC[C@@H](c2c[nH]c3cc(Br)ccc23)N=C1c1c[nH]c2cc(Br)ccc12	6.25 µg/mL (≈ 12.9 µM)	142 µM
O=C1N[C@H](c2c[nH]c3cc(Br)ccc23)CN=C1c1c[nH]c2ccccc12	6.25 µg/mL (≈ 15.3 µM)	83.6 µM
O=C1NC[C@@H](c2c[nH]c3cc(Br)ccc23)N=C1c1c[nH]c2ccccc12 [(R)-6'-DEBROMOHAMACANTHIN B]	100 µg/mL (≈ 246 µM)	> 246 µM
O=C(c1ncc(-c2c[nH]c3cc(Br)ccc23)[nH]1)c1c[nH]c2ccccc12 [BROMODEOXYTOPSENTIN]	–	48 µM
O=C(c1nc(-c2c[nH]c3cc(Br)ccc23)c[nH]1)c1c[nH]c2cc(O)ccc12 [BROMOTOPSENTIN]	25 µg/mL (≈ 59.3 µM)	39.6 µM
O=C(c1nc(-c2c[nH]c3ccccc23)c[nH]1)c1c[nH]c2ccccc12 [DEOXYTOPSENTIN]	–	48 µM
CC[C@H](CC[C@@H](C)[C@H]1CC[C@H]2[C@@H]3CC=C4C[C@@H](O[C@@H]5O[C@H](CO)[C@@H](O)[C@H](O)[C@H]5O)CC[C@]4(C)[C@H]3CC[C@]12C)C(C)C [SITOGLUSIDE]	200 µg/mL (≈ 347 µM)	31.7 µM
